Blank lines part the entries; values can stand above or below the compound they belong to.
Target: T1, Bcl-2 protein (Recombinant Human Bcl-2 Protein) (Homo sapiens, UniProt P10415)
T1 construct: purchased Novus NBP2-34889
Assay: Binding evaluation of mixture library compounds to Bcl-2 using AS-MS (affinity selection mass spectrometry)
Details: for ASMS ratio (%) n = 1 / ASMS ratio (%) n = 2: ASMS Ratio(%)=(A−C)/B×100; for ASMS ratio (%) n = 1: replicate n = 1; for ASMS ratio (%) n = 2: replicate n = 2
Procedure, shortened: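 Affinity selection MS: Bcl-2 20 μM + 1200-cpd mixture, […]/cpd, Tris pH 7.4 buffer w/ Tween-20, DTT; 1 h 23° C dark; P-2 spin SEC; MeCN/MeOH extraction; RP LC/MS. ASMS Ratio(%) = (A−C)/B×100.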

[1] = AS-MS, mixture of 1200 compounds, Bcl-2
[2] = AS-MS on the mixture of 1200 library compounds

T1 sequence (P10415 whole entry): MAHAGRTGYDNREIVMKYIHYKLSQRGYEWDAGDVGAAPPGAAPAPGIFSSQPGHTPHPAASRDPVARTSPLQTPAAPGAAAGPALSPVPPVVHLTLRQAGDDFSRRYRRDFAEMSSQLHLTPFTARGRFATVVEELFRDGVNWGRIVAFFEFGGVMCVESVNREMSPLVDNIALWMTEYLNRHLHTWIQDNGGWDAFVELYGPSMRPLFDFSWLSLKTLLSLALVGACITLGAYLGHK

Compound: CCOc1cncc(C#Cc2cc(C(=O)N3CCN(c4ccc(C(=O)N(CC)CC)cc4)CC3)cc(C(F)(F)F)c2)c1 [B4J042-01, 4-[4-[3-[2-(5-Ethoxypyridin-3-yl)ethynyl]-5-(trifluoromethyl)benzoyl]piperazin-1-yl]-N,N-diethylbenzamide]
ASMS ratio (%) n = 1 [2]: 1.0%
ASMS ratio (%) n = 2 [2]: 0.0%

Compound: CCOc1cccc(-c2ccc(CN3CCN(c4ccc(C(=O)N(C)CC56CC7CC(CC(C7)C5)C6)cc4)CC3)cc2F)c1 [B3A051-01, N-(1-Adamantylmethyl)-4-[4-[[4-(3-ethoxyphenyl)-3-fluorophenyl]methyl]piperazin-1-yl]-N-methylbenzamide]
ASMS ratio (%) n = 1 [2]: 21.3%
ASMS ratio (%) n = 2 [2]: −4.2%

Compound: 6-[4-[[4-(5-Ethoxypyridin-3-yl)-3-methylphenyl]methyl]piperazin-1-yl]-N-propylpyridazine-3-carboxamide [B1M065-01]
ASMS ratio (%) n = 1 [1]: 0.2%
ASMS ratio (%) n = 2 [1]: −6.4%

Compound: CCOc1cccc(-c2ccc(C(=O)N3CCN(c4ccc(C(=O)N(CC)CC)cc4)CC3)cc2C)c1 [B4J025-01, 4-[4-[4-(3-Ethoxyphenyl)-3-methylbenzoyl]piperazin-1-yl]-N,N-diethylbenzamide]
ASMS ratio (%) n = 1 [2]: 3.6%
ASMS ratio (%) n = 2 [2]: −0.3%

Compound: CCOc1cncc(C#Cc2ccccc2CN2CCN(c3ccc(C(=O)NCC45CC6CC(CC(C6)C4)C5)nn3)CC2)c1 [B1A096-01, N-(1-Adamantylmethyl)-6-[4-[[2-[2-(5-ethoxypyridin-3-yl)ethynyl]phenyl]methyl]piperazin-1-yl]pyridazine-3-carboxamide]
ASMS ratio (%) n = 1 [1]: 0.0%
ASMS ratio (%) n = 2 [1]: 7.4%

Compound: CCOc1cncc(-c2ccc(CN3CCN(c4ccc(C(=O)Nc5ccc(OC)cc5)cc4)CC3)c(CC)c2)c1 [B1O050-01]
ASMS ratio (%) n = 1 [2]: 10.3%
ASMS ratio (%) n = 2 [2]: −5.8%

Compound: CCOc1cncc(-c2cc(C(=O)N3CCN(c4ccc(C(=O)N(C)CC56CC7CC(CC(C7)C5)C6)cc4)CC3)cc(C(F)(F)F)c2)c1 [B3A040-01, N-(1-Adamantylmethyl)-4-[4-[3-(5-ethoxypyridin-3-yl)-5-(trifluoromethyl)benzoyl]piperazin-1-yl]-N-methylbenzamide]
ASMS ratio (%) n = 1 [2]: 3.5%
ASMS ratio (%) n = 2 [2]: −6.7%

Compound: CCOc1cccc(C#Cc2ccccc2CN2CCN(c3ccc(C(=O)NS(C)(=O)=O)nn3)CC2)c1 [B2I095-01, 6-[4-[[2-[2-(3-Ethoxyphenyl)ethynyl]phenyl]methyl]piperazin-1-yl]-N-methylsulfonylpyridazine-3-carboxamide]
ASMS ratio (%) (n = 1): 0.0%
ASMS ratio (%) (n = 2): 0.0%

Compound: CCOc1cccc(-c2csc(CN3CCN(c4ccc(C(=O)N(CC)CC)nn4)CC3)c2)c1 [B4J093-01]
ASMS ratio (%) n = 1 (AS-MS, mixture library, Bcl-2): −2.1%
ASMS ratio (%) n = 2 (AS-MS, mixture library, Bcl-2): 0.6%

Compound: CCOc1cccc(-c2cc(OC)c(CN3CCN(c4ccc(C(=O)NS(=O)(=O)CC56CC7CC(CC(C7)C5)C6)cc4)CC3)c(OC)c2)c1 [B2A059-01, N-(1-Adamantylmethylsulfonyl)-4-[4-[[4-(3-ethoxyphenyl)-2,6-dimethoxyphenyl]methyl]piperazin-1-yl]benzamide]
ASMS ratio (%) n = 1 (AS-MS, mixture library, Bcl-2): 0.0%
ASMS ratio (%) n = 2 (AS-MS, mixture library, Bcl-2): −42.2%

Second part, the compound after the results:

ASMS ratio (%) n = 1 [1]: 6.9%
ASMS ratio (%) n = 2 [1]: −1.8%
Compound: CCOc1cncc(C#Cc2ccccc2C(=O)N2CCN(c3ccc(C(=O)NCC45CC6CC(CC(C6)C4)C5)cc3)CC2)c1 [B1A030-01, N-(1-Adamantylmethyl)-4-[4-[2-[2-(5-ethoxypyridin-3-yl)ethynyl]benzoyl]piperazin-1-yl]benzamide]

ASMS ratio (%) (n = 1): 0.0%
ASMS ratio (%) (n = 2): −0.4%
Compound: CCOc1cccc(C#Cc2cncc(C(=O)N3CCN(c4ccc(C(=O)NS(=O)(=O)CCC(F)(F)F)nn4)CC3)c2)c1 [B2N009-01, 6-[4-[5-[2-(3-Ethoxyphenyl)ethynyl]pyridine-3-carbonyl]piperazin-1-yl]-N-(3,3,3-trifluoropropylsulfonyl)pyridazine-3-carboxamide]

ASMS ratio (%) (n = 1): 14.5%
ASMS ratio (%) (n = 2): 15.8%
Compound: CCOc1cncc(-c2cnn(-c3cc(C(=O)N4CCN(c5ccc(C(=O)NS(=O)(=O)c6ccc(NCCSc7ccccc7)c(C(F)(F)F)c6)nn5)CC4)cc(C(F)(F)F)c3)c2)c1 [B2R022-01, 6-[4-[3-[4-(5-Ethoxypyridin-3-yl)pyrazol-1-yl]-5-(trifluoromethyl)benzoyl]piperazin-1-yl]-N-[4-(2-phenylsulfanylethylamino)-3-(trifluoromethyl)phenyl]sulfonylpyridazine-3-carboxamide]

ASMS ratio (%) (n = 1): 6.6%
ASMS ratio (%) (n = 2): −7.8%
Compound: CCOc1cccc(-c2ccc(C(C)N3CCN(c4ccc(C(=O)NS(=O)(=O)c5ccc(NCCSc6ccccc6)c(C(F)(F)F)c5)cc4)CC3)cc2)c1 (stereo not drawn) [B2R097-01, 4-[4-[1-[4-(3-Ethoxyphenyl)phenyl]ethyl]piperazin-1-yl]-N-[4-(2-phenylsulfanylethylamino)-3-(trifluoromethyl)phenyl]sulfonylbenzamide]

ASMS ratio (%) n = 1 [1]: 0.0%
ASMS ratio (%) n = 2 [1]: 0.0%
Compound: CCOc1cncc(-c2ccc(C(=O)N3CCN(c4ccc(C(=O)NCC(F)(F)F)cc4)CC3)cc2F)c1 [B1K028-01, 4-[4-[4-(5-Ethoxypyridin-3-yl)-3-fluorobenzoyl]piperazin-1-yl]-N-(2,2,2-trifluoroethyl)benzamide]

ASMS ratio (%) (n = 1): 0.0%
ASMS ratio (%) (n = 2): −7.4%
Compound: CCOc1cncc(-c2ccc(CN3CCN(c4ccc(C(=O)NS(=O)(=O)c5ccc(NCCSc6ccccc6)c(C(F)(F)F)c5)cc4)CC3)cc2F)c1 [B2R052-01, 4-[4-[[4-(5-Ethoxypyridin-3-yl)-3-fluorophenyl]methyl]piperazin-1-yl]-N-[4-(2-phenylsulfanylethylamino)-3-(trifluoromethyl)phenyl]sulfonylbenzamide]

ASMS ratio (%) n = 1 (AS-MS, mixture library, Bcl-2): 6.5%
ASMS ratio (%) n = 2 (AS-MS, mixture library, Bcl-2): −2.9%
Compound: CCOc1cccc(-c2ccccc2CN2CCN(c3ccc(C(=O)NS(=O)(=O)CC45CC6CC(CC(C6)C4)C5)cc3)CC2)c1 [B2A045-01, N-(1-Adamantylmethylsulfonyl)-4-[4-[[2-(3-ethoxyphenyl)phenyl]methyl]piperazin-1-yl]benzamide]

ASMS ratio (%) (n = 1): 7.5%
ASMS ratio (%) (n = 2): 7.7%
Compound: CCOc1cccc(-c2ccc(C(=O)N3CCN(c4ccc(C(=O)NS(=O)(=O)c5ccc(NCCSc6ccccc6)c(C(F)(F)F)c5)nn4)CC3)c3ccccc23)c1 [B2R013-01, 6-[4-[4-(3-Ethoxyphenyl)naphthalene-1-carbonyl]piperazin-1-yl]-N-[4-(2-phenylsulfanylethylamino)-3-(trifluoromethyl)phenyl]sulfonylpyridazine-3-carboxamide]

ASMS ratio (%) (n = 1): 0.0%
ASMS ratio (%) (n = 2): 0.0%
Compound: CCOc1cccc(-c2csc(C(=O)N3CCN(c4ccc(C(=O)NS(=O)(=O)CCC(F)(F)F)cc4)CC3)c2)c1 [B2N023-01, 4-[4-[4-(3-Ethoxyphenyl)thiophene-2-carbonyl]piperazin-1-yl]-N-(3,3,3-trifluoropropylsulfonyl)benzamide]

ASMS ratio (%) n = 1 (AS-MS, mixture library, Bcl-2): 4.2%
ASMS ratio (%) n = 2 (AS-MS, mixture library, Bcl-2): −8.3%
Compound: CCOc1cccc(C#Cc2ccccc2C(=O)N2CCN(c3ccc(C(=O)NS(=O)(=O)c4ccc(NCCSc5ccccc5)c([N+](=O)[O-])c4)nn3)CC2)c1 [B2Q007-01, 6-[4-[2-[2-(3-Ethoxyphenyl)ethynyl]benzoyl]piperazin-1-yl]-N-[3-nitro-4-(2-phenylsulfanylethylamino)phenyl]sulfonylpyridazine-3-carboxamide]

ASMS ratio (%) n = 1 [2]: 3.9%
ASMS ratio (%) n = 2 [2]: −1.9%
Compound: CCOc1cccc(-c2ccc(CN3CCN(c4ccc(C(=O)Nc5ccc(OC)cc5)cc4)CC3)cc2F)c1 [B1O051-01, 4-[4-[[4-(3-Ethoxyphenyl)-3-fluorophenyl]methyl]piperazin-1-yl]-N-(4-methoxyphenyl)benzamide]

ASMS ratio (%) n = 1 [1]: 5.2%
ASMS ratio (%) n = 2 [1]: −3.2%
Compound: CCOc1cncc(-c2ccccc2CCC(=O)N2CCN(c3ccc(C(=O)NCC45CC6CC(CC(C6)C4)C5)cc3)CC2)c1 [B1A034-01, N-(1-Adamantylmethyl)-4-[4-[3-[2-(5-ethoxypyridin-3-yl)phenyl]propanoyl]piperazin-1-yl]benzamide]

ASMS ratio (%) n = 1 (AS-MS, mixture library, Bcl-2): 0.0%
ASMS ratio (%) n = 2 (AS-MS, mixture library, Bcl-2): −3.7%
Compound: CCOc1cncc(-c2ccc(C(=O)N3CCN(c4ccc(C(=O)NS(=O)(=O)c5ccc(NCCSc6ccccc6)c([N+](=O)[O-])c5)cc4)CC3)cc2F)c1 [B2Q028-01, 4-[4-[4-(5-Ethoxypyridin-3-yl)-3-fluorobenzoyl]piperazin-1-yl]-N-[3-nitro-4-(2-phenylsulfanylethylamino)phenyl]sulfonylbenzamide]

ASMS ratio (%) n = 1 [1]: 0.0%
ASMS ratio (%) n = 2 [1]: 0.6%
Compound: CCOc1cncc(-c2ccc(C(=O)N3CCN(c4ccc(C(=O)NCC(F)(F)F)nn4)CC3)cc2C)c1 [B1K004-01, 6-[4-[4-(5-Ethoxypyridin-3-yl)-3-methylbenzoyl]piperazin-1-yl]-N-(2,2,2-trifluoroethyl)pyridazine-3-carboxamide]
